Experimental data: ChEMBL document CHEMBL1201862, “PubChem BioAssay data set” (2004)
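Briefly, cells in 96-well plates were exposed to five compound concentrations for 48 h, and endpoints were estimated by linear interpolation. The concentration for 50% growth inhibition is given as GI50.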 Activity calls are given as the source filed them. Rule as the data show it: active = GI50 up to about 1.1 µM and inactive = higher. Peptide text beside a SMILES is read from it. * marks the point of attachment. Boc = CC(C)(C)OC(=O)*; OBn = c1ccc(CO*)cc1

How the values were obtained:
Assay in all cases: DTP human tumour cell line panel, 48 h
OVCAR-8 = test system: OVCAR-8
HL-60 = test system: HL-60
NCI-H460 = test system: NCI-H460
SK-MEL-28 = test system: SK-MEL-28
UO-31 = test system: UO-31
HOP-62 = test system: HOP-62
HCT-15 = test system: HCT-15
M14 = test system: M14
COLO 205 = test system: COLO 205
IGROV-1 = test system: IGROV-1
NCI-H23 = test system: NCI-H23
SK-MEL-5 = test system: SK-MEL-5
OVCAR-5 = test system: OVCAR-5
CAKI-1 = test system: CAKI-1
SNB-75 = test system: SNB-75
RXF 393 = test system: RXF 393
MDA-MB-231 = test system: MDA-MB-231
DU-145 = test system: DU-145
T47D = test system: T47D

Compound | GI50 (OVCAR-8) | GI50 (HL-60) | GI50 (NCI-H460) | GI50 (SK-MEL-28) | GI50 (UO-31) | GI50 (HOP-62) | GI50 (HCT-15) [µM] | GI50 (M14) | GI50 (COLO 205) | GI50 (IGROV-1) | GI50 (NCI-H23) | GI50 (SK-MEL-5) | GI50 (OVCAR-5) | GI50 (CAKI-1) | GI50 (SNB-75) | GI50 (RXF 393) | GI50 (MDA-MB-231) | GI50 (DU-145) | GI50 (T47D)
COC(=O)C(/C(=N/N)C(=O)Nc1cc(Cl)ccc1Cl)c1nc2ccc([N+](=O)[O-])cc2nc1O (centres undefined) | > 100 µM (inactive) | > 100 µM (inactive) | > 100 µM (inactive) | > 100 µM (inactive) | 40 µM (inactive) | > 100 µM (inactive) | 76.4 | 72.3 µM (inactive) | > 100 µM (inactive) | > 100 µM (inactive) | > 100 µM (inactive) | > 100 µM (inactive) | > 100 µM (inactive) | – | – | – | – | – | –
N#Cc1ccc(/C=N/C23CC4CC(CC(C4)C2)C3)cc1 | > 100 µM (inactive) | 27 µM (inactive) | > 100 µM (inactive) | > 100 µM (inactive) | > 100 µM (inactive) | > 100 µM (inactive) | > 100 | > 100 µM (inactive) | > 100 µM (inactive) | > 100 µM (inactive) | > 100 µM (inactive) | > 10 µM (inactive) | > 100 µM (inactive) | > 100 µM (inactive) | > 10 µM (inactive) | > 100 µM (inactive) | – | – | –
O=C(NCc1ccccc1Cl)c1c(O)c2ccccc2[nH]c1=O | 75 µM (inactive) | > 100 µM (inactive) | 18.7 µM (inactive) | > 100 µM (inactive) | 13.6 µM (inactive) | 19.1 µM (inactive) | 42.8 | – | 39.8 µM (inactive) | 24.6 µM (inactive) | > 100 µM (inactive) | 46.8 µM (inactive) | > 100 µM (inactive) | 22.7 µM (inactive) | 21.6 µM (inactive) | 21.2 µM (inactive) | 18.6 µM (inactive) | > 100 µM (inactive) | –
CC(C)C1CCC/C=C/C=C/C=C/C=C/C(OC2OC(C)C(O)C(N)C2O)CC2OC(O)(CC(O)CC(O)C(O)CCC(=O)O1)CC(O)C2C(=O)O (centres undefined) | > 52.5 µM (inactive) | > 52.5 µM (inactive) | – | > 52.5 µM (inactive) | > 52.5 µM (inactive) | > 52.5 µM (inactive) | > 52.5 | > 52.5 µM (inactive) | > 52.5 µM (inactive) | > 52.5 µM (inactive) | – | > 52.5 µM (inactive) | – | > 52.5 µM (inactive) | > 52.5 µM (inactive) | – | – | – | –
CCOC(=O)C1C2CCC1CC(=NNc1ccc([N+](=O)[O-])cc1[N+](=O)[O-])C2 (centres undefined) | > 50 µM (inactive) | – | > 50 µM (inactive) | > 50 µM (inactive) | > 50 µM (inactive) | > 50 µM (inactive) | > 50 | > 50 µM (inactive) | > 50 µM (inactive) | > 50 µM (inactive) | > 50 µM (inactive) | 46.2 µM (inactive) | > 50 µM (inactive) | 14.8 µM (inactive) | 18 µM (inactive) | > 50 µM (inactive) | > 50 µM (inactive) | > 50 µM (inactive) | –
O=C(CN1CCN(c2ccccc2)CC1)c1ccc2[nH]c(=O)oc2c1 | > 100 µM (inactive) | > 100 µM (inactive) | > 100 µM (inactive) | > 100 µM (inactive) | – | > 100 µM (inactive) | > 100 | > 100 µM (inactive) | > 100 µM (inactive) | > 100 µM (inactive) | > 100 µM (inactive) | – | > 100 µM (inactive) | > 100 µM (inactive) | > 100 µM (inactive) | > 100 µM (inactive) | 83.4 µM (inactive) | > 100 µM (inactive) | –
c1csc(-c2cc(-c3cccs3)c(-c3cccs3)s2)c1 | > 100 µM (inactive) | – | 47.2 µM (inactive) | 57.4 µM (inactive) | > 100 µM (inactive) | > 100 µM (inactive) | 49.8 | 47 µM (inactive) | 40.6 µM (inactive) | > 100 µM (inactive) | 96.4 µM (inactive) | 33.2 µM (inactive) | > 100 µM (inactive) | > 100 µM (inactive) | 21.2 µM (inactive) | 61.5 µM (inactive) | 56.1 µM (inactive) | > 100 µM (inactive) | 4.69 µM (inactive)
N#CCCOc1cccc(C2(N3CCCCC3)CCCCC2)c1 | > 100 µM (inactive) | > 100 µM (inactive) | – | > 100 µM (inactive) | > 100 µM (inactive) | > 100 µM (inactive) | > 100 | > 100 µM (inactive) | > 100 µM (inactive) | > 100 µM (inactive) | > 100 µM (inactive) | > 100 µM (inactive) | > 100 µM (inactive) | > 100 µM (inactive) | – | – | > 100 µM (inactive) | > 100 µM (inactive) | > 100 µM (inactive)
O=c1cc(NCc2ccncc2)[nH]c(=O)[nH]1 | > 100 µM (inactive) | > 100 µM (inactive) | > 100 µM (inactive) | > 100 µM (inactive) | > 100 µM (inactive) | > 100 µM (inactive) | > 100 | > 100 µM (inactive) | > 100 µM (inactive) | > 100 µM (inactive) | > 100 µM (inactive) | > 100 µM (inactive) | > 100 µM (inactive) | > 100 µM (inactive) | > 100 µM (inactive) | > 100 µM (inactive) | > 100 µM (inactive) | – | > 100 µM (inactive)
Cc1c(C(=O)/C=C/c2c(Cl)cccc2Cl)c(=O)n(-c2ccccc2)n1C | 16.7 µM (inactive) | – | 11.4 µM (inactive) | 36.1 µM (inactive) | 31.8 µM (inactive) | – | 19.5 | – | 13.9 µM (inactive) | 30.1 µM (inactive) | – | – | 71.8 µM (inactive) | 19 µM (inactive) | – | 5.79 µM (inactive) | – | – | –
CCCNC(=O)Cn1c(C)cc2ccccc21 | > 100 µM (inactive) | > 100 µM (inactive) | > 10 µM (inactive) | > 100 µM (inactive) | > 100 µM (inactive) | > 100 µM (inactive) | > 100 | > 100 µM (inactive) | > 100 µM (inactive) | > 100 µM (inactive) | > 100 µM (inactive) | > 100 µM (inactive) | > 100 µM (inactive) | > 100 µM (inactive) | > 100 µM (inactive) | > 100 µM (inactive) | – | > 100 µM (inactive) | > 100 µM (inactive)
C[S+](C)CCOC(=O)C(=[N+]=[N-])c1ccc([N+](=O)[O-])cc1 | > 100 µM (inactive) | > 100 µM (inactive) | > 100 µM (inactive) | – | > 100 µM (inactive) | > 100 µM (inactive) | > 100 | > 100 µM (inactive) | > 100 µM (inactive) | > 100 µM (inactive) | > 100 µM (inactive) | > 100 µM (inactive) | > 100 µM (inactive) | > 100 µM (inactive) | > 100 µM (inactive) | > 100 µM (inactive) | – | – | –
N#Cc1c(N)c(-c2ccc(Cl)cc2)c(F)c2ccccc12 | > 100 µM (inactive) | – | > 100 µM (inactive) | > 100 µM (inactive) | 3.2 µM (inactive) | > 100 µM (inactive) | > 100 | > 100 µM (inactive) | > 100 µM (inactive) | > 100 µM (inactive) | > 100 µM (inactive) | > 100 µM (inactive) | > 100 µM (inactive) | > 100 µM (inactive) | 11.1 µM (inactive) | 18.8 µM (inactive) | 66.2 µM (inactive) | – | > 100 µM (inactive)
O=C(CCCCCCCCC(=O)N1C(=O)CC(=O)N(c2ccc(Cl)cc2)C1=S)N1C(=O)CC(=O)N(c2ccc(Cl)cc2)C1=S | 63.5 µM (inactive) | – | 29.6 µM (inactive) | 70.3 µM (inactive) | 35.7 µM (inactive) | 80.9 µM (inactive) | 35.6 | 38.5 µM (inactive) | 32.9 µM (inactive) | – | 58.5 µM (inactive) | 29.9 µM (inactive) | > 100 µM (inactive) | > 100 µM (inactive) | > 100 µM (inactive) | > 100 µM (inactive) | 70.8 µM (inactive) | > 100 µM (inactive) | 33.3 µM (inactive)
COC1OC(C)C(O)CC1OS(=O)(=O)c1ccc(C)cc1 (centres undefined) | > 100 µM (inactive) | > 100 µM (inactive) | > 100 µM (inactive) | > 100 µM (inactive) | > 100 µM (inactive) | – | > 100 | > 100 µM (inactive) | > 100 µM (inactive) | > 100 µM (inactive) | > 100 µM (inactive) | > 100 µM (inactive) | > 100 µM (inactive) | > 100 µM (inactive) | 37.9 µM (inactive) | > 100 µM (inactive) | – | – | –
C=CCOn1c(C=C)nc2ccc(C)cc21 | 23.6 µM (inactive) | 5.01 µM (inactive) | 13.7 µM (inactive) | 18.7 µM (inactive) | 13.6 µM (inactive) | 17.9 µM (inactive) | 17 | 16.5 µM (inactive) | 13.6 µM (inactive) | 26.2 µM (inactive) | 19.8 µM (inactive) | 17.5 µM (inactive) | 18.4 µM (inactive) | 20.4 µM (inactive) | 16 µM (inactive) | – | 16.7 µM (inactive) | – | 10.7 µM (inactive)
CC(NC(=O)C(NC(=O)OC(C)(C)C)C(C)C)C(=O)N1CCCC1C(=O)NCC(=O)NC(C(=O)NCC(=O)OCc1ccccc1)C(C)C (centres undefined) (Boc-VAPGVG-OBn; configuration not given here) | > 100 µM (inactive) | > 100 µM (inactive) | > 100 µM (inactive) | > 100 µM (inactive) | > 100 µM (inactive) | > 100 µM (inactive) | > 100 | > 100 µM (inactive) | > 100 µM (inactive) | 62.1 µM (inactive) | > 100 µM (inactive) | – | > 100 µM (inactive) | > 100 µM (inactive) | 71.3 µM (inactive) | – | > 100 µM (inactive) | > 100 µM (inactive) | > 100 µM (inactive)
